Laboratory results: patent US11214594B2, “Antimicrobial peptide having synergistic antibacterial effect with antibiotics on multidrug resistant bacteria, and use thereof” (priority 2016, dated 2022)
Values after ≈ are worked out from the molar mass of the structure shown. Read-outs that look alike come from different tables or passages of the source. Where a SMILES comes first, the peptide text is derived from it.

Experiments:
MDREC 1229 [1] = test: MIC of antibiotic during combined treatment with antimicrobial peptide; format: cell-based, Escherichia coli
How it was run: (§1)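 Antibiotic MIC came from antibiotic dilutions added to bacteria (2×10^6 CFU/ml, MH medium) already combined with peptide serially diluted 2:1 from its own MIC. Swapping the roles of the two agents gave the peptide MIC.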

B. subtilis = test: microbe, parasite or virus in culture; format: cell-based, Bacillus subtilis
How it was run: (§2)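 Peptides were serially diluted twofold in Mueller-Hinton medium and combined 1:1 with bacterial suspensions prepared at 2×10^6 CFU. Readout was the minimal inhibitory concentration, i.e. the lowest concentration with no growth.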

A. baumannii [2] = test: MIC of antimicrobial peptide during combined treatment with antibiotic; format: cell-based, Acinetobacter baumannii
How it was run: as §1

MDRAB 12035 = test: as above; format: cell-based, Acinetobacter baumannii
How it was run: as §1

E. coli [3] = format: cell-based, Escherichia coli; conditions: E. coli
How it was run: as §1

MDREC 1229 [4] = format: cell-based, Escherichia coli
How it was run: as §1

P. aeruginosa = test: microbe, parasite or virus in culture; format: cell-based, Pseudomonas aeruginosa
How it was run: as §2

S. epidermidis = test: microbe, parasite or virus in culture; format: cell-based, Staphylococcus epidermidis
How it was run: as §2

E. coli [5] = test: MIC of antibiotic during combined treatment with antimicrobial peptide; format: cell-based, Escherichia coli; conditions: for Antibiotic MIC, Erythromycin / Antibiotic MIC, Linezolid / Antibiotic MIC, Vancomycin: E. coli
How it was run: (§3)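 MIC values for mixed peptide plus antibiotic solutions were measured in MH medium.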

MDRST 8009 = format: cell-based, Salmonella typhimurium; conditions: agent alone
How it was run: as §2

E. coli [6] = test: microbe, parasite or virus in culture; format: cell-based, Escherichia coli; conditions: 16 h
How it was run: as §2

MDREC 1229 [7] = test: microbe, parasite or virus in culture; format: cell-based, Escherichia coli
How it was run: as §2

A. baumannii [8] = test: MIC of antibiotic during combined treatment with antimicrobial peptide; format: cell-based, Acinetobacter baumannii; conditions: for Antibiotic MIC, Erythromycin / Antibiotic MIC, Linezolid / Antibiotic MIC, Vancomycin: A. baumannii
How it was run: as §3

[9] = peptide treatment concentration 1 μg/ml
[10] = peptide treatment concentration 2 μg/ml
[11] = peptide treatment concentration 4 μg/ml
[12] = peptide treatment concentration 6 μg/ml
[13] = peptide treatment concentration 8 μg/ml
[14] = peptide treatment concentration 16 μg/ml
[15] = peptide treatment concentration 32 μg/ml
[16] = peptide treatment concentration 64 μg/ml
[17] = erythromycin 4 μg/ml (Conc./MIC 1/8)
[18] = erythromycin 8 μg/ml (Conc./MIC 1/4)
[19] = erythromycin 16 μg/ml (Conc./MIC 1/2)
[20] = erythromycin 32 μg/ml (Conc./MIC 1)
[21] = vancomycin 512 μg/ml (Conc./MIC 1/2)
[22] = vancomycin 1024 μg/ml (Conc./MIC 1)
[23] = with Erythromycin […] (Conc./MIC 1)
[24] = combined with peptide at 1 μg/ml
[25] = combined with peptide at 2 μg/ml
[26] = combined with peptide at 4 μg/ml
[27] = combined with peptide at 6 μg/ml
[28] = combined with peptide at 8 μg/ml
[29] = combined with peptide at 16 μg/ml
[30] = combined with peptide at 32 μg/ml
[31] = combined with peptide at 64 μg/ml

## CC[C@H](C)[C@H](NC(=O)[C@H](CCCCN)NC(=O)[C@H](Cc1c[nH]c2ccccc12)NC(=O)[C@@H](N)CCCNC(=N)N)C(=O)N[C@@H](Cc1ccccc1)C(=O)N[C@@H](CCCCN)C(=O)N[C@@H](CCCCN)C(=O)N[C@H](C(=O)N1CCC[C@H]1C(=O)N[C@@H](CCCCN)C(=O)N[C@@H](Cc1ccccc1)C(=O)N[C@@H](CC(C)C)C(=O)N[C@@H](Cc1c[nH]cn1)C(=O)N[C@@H](CO)C(=O)N[C@@H](C)C(=O)N[C@@H](CCCCN)C(=O)N[C@@H](CCCCN)C(=O)N[C@@H](Cc1c[nH]c2ccccc12)C(N)=O)[C@@H](C)CC [PapMA-2, RWK IFK KIP KFL HSA KKW-NH2] (H-RWKIFKKIPKFLHSAKKW-NH2; N-terminus assumed)
MDREC 1229 [1]; [9]
  Antibiotic MIC, Erythromycin: 64 µg/mL
  Antibiotic MIC, Linezolid: >128 µg/mL
  Antibiotic MIC, Vancomycin: >128 µg/mL
MDREC 1229 [1]; [10]
  Antibiotic MIC, Erythromycin: 32 µg/mL
  Antibiotic MIC, Linezolid: 64 µg/mL
  Antibiotic MIC, Vancomycin: >128 µg/mL
MDREC 1229 [1]; [11]
  Antibiotic MIC, Erythromycin: 16 µg/mL
  Antibiotic MIC, Linezolid: 32 µg/mL
  Antibiotic MIC, Vancomycin: 128 µg/mL
MDREC 1229 [1]; [12]
  Antibiotic MIC, Erythromycin: 8 µg/mL
  Antibiotic MIC, Linezolid: 32 µg/mL
  Antibiotic MIC, Vancomycin: 128 µg/mL
MDREC 1229 [1]; [13]
  Antibiotic MIC, Erythromycin: 2 µg/mL
  Antibiotic MIC, Linezolid: 16 µg/mL
  Antibiotic MIC, Vancomycin: 64 µg/mL
MDREC 1229 [1]; [14]
  Antibiotic MIC, Erythromycin: 0.5 µg/mL
  Antibiotic MIC, Linezolid: 8 µg/mL
  Antibiotic MIC, Vancomycin: 16 µg/mL
MDREC 1229 [1]; [15]
  Antibiotic MIC, Erythromycin: 0.125 µg/mL
  Antibiotic MIC, Linezolid: 4 µg/mL
  Antibiotic MIC, Vancomycin: 8 µg/mL
MDREC 1229 [1]; [16]
  Antibiotic MIC, Erythromycin: 0 µg/mL
  Antibiotic MIC, Linezolid: 0 µg/mL
  Antibiotic MIC, Vancomycin: 0 µg/mL
B. subtilis
  Minimal inhibitory concentration MIC: >128 µg/mL
A. baumannii [2]; [17]
  Peptide MIC during treatment with antibiotic: 4 µg/mL
A. baumannii [2]; [18]
  Peptide MIC during treatment with antibiotic: 4 µg/mL
A. baumannii [2]; [19]
  Peptide MIC during treatment with antibiotic: 1 µg/mL
A. baumannii [2]; [20]
  Peptide MIC during treatment with antibiotic: 0 µg/mL
A. baumannii [2]; linezolid 32 μg/ml (Conc./MIC 1/8)
  Peptide MIC during treatment with antibiotic: 4 µg/mL
A. baumannii [2]; linezolid 64 μg/ml (Conc./MIC 1/4)
  Peptide MIC during treatment with antibiotic: 4 µg/mL
A. baumannii [2]; linezolid […] (Conc./MIC 1)
  Peptide MIC during treatment with antibiotic: 0 µg/mL
A. baumannii [2]; linezolid […] (Conc./MIC 1/2)
  Peptide MIC during treatment with antibiotic: 0.5 µg/mL
A. baumannii [2]; [21]
  Peptide MIC during treatment with antibiotic: 0.25 µg/mL
A. baumannii [2]; [22]
  Peptide MIC during treatment with antibiotic: 0 µg/mL
A. baumannii [2]; vancomycin […] (Conc./MIC 1/4)
  Peptide MIC during treatment with antibiotic: 0.5 µg/mL
A. baumannii [2]; vancomycin […] (Conc./MIC 1/8)
  Peptide MIC during treatment with antibiotic: 2 µg/mL
MDRAB 12035; [17]
  Peptide MIC during treatment with erythromycin: 4 µg/mL
MDRAB 12035; [18]
  Peptide MIC during treatment with erythromycin: 4 µg/mL
MDRAB 12035; [19]
  Peptide MIC during treatment with erythromycin: 2 µg/mL
MDRAB 12035; [20]
  Peptide MIC during treatment with erythromycin: 0 µg/mL
MDRAB 12035; linezolid 64 μg/ml (Conc./MIC 1/8)
  Peptide MIC during treatment with linezolid: 4 µg/mL
MDRAB 12035; linezolid 512 μg/ml (Conc./MIC 1)
  Peptide MIC during treatment with linezolid: 0 µg/mL
MDRAB 12035; linezolid […] (Conc./MIC 1/2)
  Peptide MIC during treatment with linezolid: 1 µg/mL
MDRAB 12035; linezolid […] (Conc./MIC 1/4)
  Peptide MIC during treatment with linezolid: 2 µg/mL
MDRAB 12035; [21]
  Peptide MIC during treatment with vancomycin: 1 µg/mL
MDRAB 12035; [22]
  Peptide MIC during treatment with vancomycin: 0.25 µg/mL
MDRAB 12035; vancomycin […] (Conc./MIC 1/4)
  Peptide MIC during treatment with vancomycin: 2 µg/mL
MDRAB 12035; vancomycin […] (Conc./MIC 1/8)
  Peptide MIC during treatment with vancomycin: 4 µg/mL
E. coli [3]; [23]
  Peptide MIC: 0 µg/mL
E. coli [3]; with Linezolid […] (Conc./MIC 1)
  Peptide MIC: 0 µg/mL
E. coli [3]; with Vancomycin 1024 μg/ml (Conc./MIC 1)
  Peptide MIC: 0 µg/mL
MDREC 1229 [4]; [23]
  Peptide MIC: 0 µg/mL
MDREC 1229 [4]; with Linezolid 512 μg/ml (Conc./MIC 1)
  Peptide MIC: 0 µg/mL
P. aeruginosa
  Minimal inhibitory concentration MIC: 16 µg/mL (≈ 6.83 µM)
S. epidermidis
  Minimal inhibitory concentration MIC: >128 µg/mL
E. coli [5]; E. coli and MDREC1229
  Synergistic effect of antibacterial activity with existing antibiotics compared with PapMA-1: higher level than the PapMA-1 peptide
E. coli [5]; erythromycin combined with peptide at 1 μg/ml
  Antibiotic MIC, Erythromycin: 64 µg/mL
E. coli [5]; erythromycin combined with peptide at 2 μg/ml
  Antibiotic MIC, Erythromycin: 32 µg/mL
E. coli [5]; erythromycin combined with peptide at 4 μg/ml
  Antibiotic MIC, Erythromycin: 16 µg/mL
E. coli [5]; erythromycin combined with peptide at 6 μg/ml
  Antibiotic MIC, Erythromycin: 2 µg/mL
E. coli [5]; erythromycin combined with peptide at 8 μg/ml
  Antibiotic MIC, Erythromycin: 0.5 µg/mL
E. coli [5]; erythromycin combined with peptide at 16 μg/ml
  Antibiotic MIC, Erythromycin: 0.25 µg/mL
E. coli [5]; erythromycin combined with peptide at 32 μg/ml
  Antibiotic MIC, Erythromycin: 0.125 µg/mL
E. coli [5]; erythromycin combined with peptide at 64 μg/ml
  Antibiotic MIC, Erythromycin: 0 µg/mL
E. coli [5]; linezolid combined with peptide at 1 μg/ml
  Antibiotic MIC, Linezolid: 128 µg/mL
E. coli [5]; linezolid combined with peptide at 2 μg/ml
  Antibiotic MIC, Linezolid: 64 µg/mL
E. coli [5]; linezolid combined with peptide at 4 μg/ml
  Antibiotic MIC, Linezolid: 16 µg/mL
E. coli [5]; linezolid combined with peptide at 6 μg/ml
  Antibiotic MIC, Linezolid: 16 µg/mL
E. coli [5]; linezolid combined with peptide at 8 μg/ml
  Antibiotic MIC, Linezolid: 8 µg/mL
E. coli [5]; linezolid combined with peptide at 16 μg/ml
  Antibiotic MIC, Linezolid: 8 µg/mL
E. coli [5]; linezolid combined with peptide at 32 μg/ml
  Antibiotic MIC, Linezolid: 4 µg/mL
E. coli [5]; linezolid combined with peptide at 64 μg/ml
  Antibiotic MIC, Linezolid: 0 µg/mL
E. coli [5]; vancomycin combined with peptide at 1 μg/ml
  Antibiotic MIC, Vancomycin: >128 µg/mL
E. coli [5]; vancomycin combined with peptide at 2 μg/ml
  Antibiotic MIC, Vancomycin: >128 µg/mL
E. coli [5]; vancomycin combined with peptide at 4 μg/ml
  Antibiotic MIC, Vancomycin: >128 µg/mL
E. coli [5]; vancomycin combined with peptide at 6 μg/ml
  Antibiotic MIC, Vancomycin: 64 µg/mL
E. coli [5]; vancomycin combined with peptide at 8 μg/ml
  Antibiotic MIC, Vancomycin: 32 µg/mL
E. coli [5]; vancomycin combined with peptide at 16 μg/ml
  Antibiotic MIC, Vancomycin: 8 µg/mL
E. coli [5]; vancomycin combined with peptide at 32 μg/ml
  Antibiotic MIC, Vancomycin: 4 µg/mL
E. coli [5]; vancomycin combined with peptide at 64 μg/ml
  Antibiotic MIC, Vancomycin: 0 µg/mL
E. coli [5]; same peptide concentration as PapMA-1
  Lowering of the MIC value of the antibiotics mixed with peptide compared with PapMA-1: twice to four times
MDRST 8009
  Minimal inhibitory concentration MIC: 64 µg/mL (≈ 27.3 µM)
E. coli [6]
  Minimal inhibitory concentration MIC: 64 µg/mL (≈ 27.3 µM)
MDREC 1229 [7]
  Minimal inhibitory concentration MIC: 64 µg/mL (≈ 27.3 µM)
A. baumannii [8]; A. baumannii and MDRAB 12035
  Synergistic effect of antibacterial activity with existing antibiotics compared with PapMA-1: higher level than the PapMA-1 peptide
A. baumannii [8]; [24]
  Antibiotic MIC, Erythromycin: 16 µg/mL
  Antibiotic MIC, Linezolid: >128 µg/mL
  Antibiotic MIC, Vancomycin: >128 µg/mL
A. baumannii [8]; [25]
  Antibiotic MIC, Erythromycin: 16 µg/mL
  Antibiotic MIC, Linezolid: 64 µg/mL
  Antibiotic MIC, Vancomycin: 128 µg/mL
A. baumannii [8]; [26]
  Antibiotic MIC, Erythromycin: 8 µg/mL
  Antibiotic MIC, Linezolid: 32 µg/mL
  Antibiotic MIC, Vancomycin: 32 µg/mL
A. baumannii [8]; [27]
  Antibiotic MIC, Erythromycin: 1 µg/mL
  Antibiotic MIC, Linezolid: 16 µg/mL
  Antibiotic MIC, Vancomycin: 16 µg/mL
A. baumannii [8]; [28]
  Antibiotic MIC, Erythromycin: 0.125 µg/mL
  Antibiotic MIC, Linezolid: 8 µg/mL
  Antibiotic MIC, Vancomycin: 8 µg/mL
A. baumannii [8]; [29]
  Antibiotic MIC, Erythromycin: 0 µg/mL
  Antibiotic MIC, Linezolid: 0 µg/mL
  Antibiotic MIC, Vancomycin: 0 µg/mL
A. baumannii [8]; [30]
  Antibiotic MIC, Erythromycin: 0 µg/mL
  Antibiotic MIC, Linezolid: 0 µg/mL
  Antibiotic MIC, Vancomycin: 0 µg/mL
A. baumannii [8]; [31]
  Antibiotic MIC, Erythromycin: 0 µg/mL
  Antibiotic MIC, Linezolid: 0 µg/mL
  Antibiotic MIC, Vancomycin: 0 µg/mL
